Values of other authors as cited in patent EP2839829B1 (Korea United Pharm. Inc., priority 2012, dated 2013).

Conditions: in the body

SMILES: OC[C@@H](O)CN1CCN(c2ccccc2)CC1 [levodropropizine]
- half life: about 1 hr
